Test results taken from ChEMBL document CHEMBL3769305, “Glucose-functionalized amino-OPEs as biocompatible photosensitizers in PDT” (Eur J Med Chem, 2016).

Test: Induction of singlet-oxygen generation at 5 x 10^-5 M irradiated at 380 nm by uric acid degradation assay
Type: physicochemical
Details: 0.38 µM; call rule not given here

Activity: Not Active
Structure (SMILES): COc1cc(C#Cc2cc(OC)c(C#Cc3cc(OC)c(C#CCO[C@@H]4O[C@H](CO)[C@@H](O)[C@H](O)[C@H]4O)cc3OC)cc2OC)c(OC)cc1C#CCO[C@@H]1O[C@H](CO)[C@@H](O)[C@H](O)[C@H]1O
